Laboratory results: US11266710B2, “Angio-3 for treatment of retinal angiogenic diseases” (SINGAPORE HEALTH SERVICES PTE LTD, priority 2017, dated 2022)
Where no end group is shown, it is not given here. [ ]: non-standard residue; d: D form. hArg = N=C(N)NCCCC[C@H](N)C(=O)O

Experiments:
[1] = test system: laser-induced CNV in C57/BL6J (B6J) wild type mice; experiment: Laser-induced choroidal neovascularization (CNV) model in mice, area of leakage by FFA; type: in vivo; conditions: for Area of Leakage (mean) Week 1 / Area of Leakage (mean) Week 4: laser-induced CNV mice; for Area of Leakage (mean) Week 1 / Area of Leakage (mean) Week 4 / choroidal angiogenesis: prevention mode; for % Reduction (area of leakage): vehicle control = 0%; for choroidal angiogenesis: B6J mice, single intravitreal injection at dose 100 ng, 1 g, and 5 μg
Procedure: FIG. 3A is a schematic of the experimental design on the efficacy of Angio-3 in a laser-induced choroidal neovascularization (CNV) model in mice (B6J WT mice). FIG. 3B are FFA images of baseline and at different time points post treatment. IV single injection of 100 μL of Angio-3 (25 mg/Kg Bwt) was given at Day 0 (prevention mode) and 4 days after laser (regression mode) and followed for 10 weeks. FIG. 3C is a graph showing the area of leakage by each eye for various groups. FIG. 3D are graphs of the mean area of leakage of all batches for each group. […] The attenuation retinal vascularization was better than scrambled peptide. n=6 eyes per batch; n=3 batches. Values are expressed as means±s.e.m., **P<0.01, *P<0.05, student's t-test. FIG. 3E is a graph of the result of the Retinal Function Test that measures ERG changes in Angio-3 treated and control.
FIG. 4A is a schematic of the experimental design on the efficacy of Angio-3 by IVT administration. […]
FIG. 11 A are FFA images of baseline and at different time points post treatment. Mice received single IVT injection of Angio-3 (at a dose of 1 μg in 1 μl or 100 ng in 1 μl), and chemically modified Angio-3 peptides Pep-N (at doses of 5 μg in μl; 1 μg in μl; and 100 ng in 1 μl, respectively) and Pep-Q peptides (at doses of 5 μg in μl; 1 μg in μl; and 100 ng in 1 μl, respectively). FIG. 11 B is a graph of the area of leakage by each eye. Single dose attenuates retinal angiogenesis in laser-induced mice CNV model via IVT route till 4 weeks. […] Eylea is the positive control. n=18 eyes per group; Values are expressed as means±s.e.m. n=3 independent experiment, **P<0.01, *P<0.05, student's t-test.
Laser induced choridal neo-vascularization (CNV) in C57/BL6J (B6J) wild type mice (n=90).
In B6J mice, single injection of 100 μl volume at 25 mg/kg Bwt concentration Angio-3 was injected via intravenous (i/v) route and this was tested in both Preventive mode (before laser) and Regression mode (4 days after laser). […]
Angio-3 was also injected via intravitreal (IVT) route, single injection of 1 μl volume at 2 different doses; 1 μg (High dose) and 100 ng (Low dose).
4 laser photocoagulation sites were placed concentrically around the optic disc of both eyes to induce CNVs. A diode laser (810 nm) was used with a relative potency scale of 120 mW for mice and 250 mW for rats, an exposure time of 0.05 s, and a spot size of […]. Laser spots were focused with crystal covers to avoid laser beam dispersion. Bubble formation was confirmed the rupture of Bruch's membrane.
Fundus photography and fundus fluorescein angiography (FFA) was imaged using a MICRON IV fundus camera (Phoenix Laboratories USA). For FFA, animals were intraperitoneally injected with 10% sodium fluorescein at a dose of 0.01 ml per 5-6 gm body weight.
In B6J mice, single intravitreous (IVT) injection of 100 ng, 1 μg, 5 μg PEP-Q, PEP-N (modified Angio-3), Angio-3 and Eylea were executed and this was tested in Prevention mode (before laser) Method of Llser induced CNV model and injection was described as above.

[2] = test system: laser-induced CNV in Cynomolgus monkeys; experiment: Laser-induced CNV model in Cynomolgus monkeys (wet AMD model); type: in vivo, Cynomolgus monkey; conditions: 2 mg Angio-3, 2 mg and 4 mg PeptideQ, 2 mg Eylea, single IVT
Procedure: FIGS. 25A, 25B, 25C, 25D, 25E, and 25F show the results of testing in a laser-induced chorodial neovascularization (CNV) model in Cynomolgus moneys developed as an experimental model of wet AMD. FIG. 25A is a schematic of the study design. FIG. 25B are representative fundus fluorescein angiography (FFA) images of all groups. FIG. 25C is a graph showing change in mean lesion grade of the eye in monkeys treated with a single dose 2 mg of Angio-3, dose 2 mg of anti-VEGF (Eylea), 2 mg of peptide (Q2) and 4 mg of peptide (Q4) and control. […] FIG. 25E is a graph of laser area quantified from the FFA images by ImageJ software. FIG. 25F are graphs of laser volume quantified from PS-OCT images by ImageJ software.
A laser-induced choroidal neovascularization (CNV) model was developed and validated in Cynomolgus monkeys as experimental model of wet AMD. […] The development of active CNV was assessed by fluorescein angiography, at Day 14 the baseline degree of neovascularization and leakiness were measured and the final fluorescein angiography assessment was performed on Day 28. Leakage area was quantified by ImageJ software. The laser volume was quantified by Spectralis-Heidelberg software using SD-OCT images.

[3] = test system: corneal neovascularization after alkali-burn injury in mice; experiment: Corneal neovascularization after alkali-burn injury in mice; type: in vivo, mouse; conditions: 1% solution topically 3×/day for 7 days; vs vehicle control
Procedure: Mice were anesthetized with the combination of 80 mg/kg ketamine and 5 mg/kg xylazine. One drop of 1% xylocaine was applied to the corneal surface for local analgesia. Round piece of filter paper, approximately 2 mm in diameter was soaked in a solution of 1 M NaOH. A piece of NaOH soaked filter paper was picked by sterile forceps. NAOH soaked filter paper was placed on the central cornea under microscope to ensure properly placing the filter paper. Left it for 30 sec to generate an acute alkali-burn of approximately 2×2 mm^2 in area. Filter paper was removed and then gently flushed the eye with 10 ml of 1×PBS twice to wash away residual 1 M NaOH. Only one eye of the mouse was injured and the other serving as a control. A drop of 1× Peptide Q (1% solution as test compound) or a vehicle control consisting of PBS was topically applied to the cornea. Repeated application occurred 3×/day for 7 days. At end point, clinical assessment was done as stated below and eyes were enucleated for corneal flat mount.
A daily examination of the mice in a blinded fashion was performed under a surgical microscope and score corneal neo-vascularization (NV) was based on corneal opacity, NV and vessel size. Two observers were scored and record a final score that was the average of the two. Score corneal opacity on a scale of 0-4. […]

HRMEC cells [4] = experiment: VEGF induced proliferation of HRMEC cells (Alamar-Blue); type: cell-based; conditions: 300 μg/ml; 10 ng/ml or 50 ng/ml VEGF165; 3 days
Procedure: 2000 HRMEC cells were seeded in 96-well plates in 100 μl of media and placed in a CO2 incubator at 37° C. To evaluate the effect the compounds have on VEGF-induced HRMEC proliferation, cells were treated with 10 ng/ml VEGF165 or 50 ng/ml VEGF165 in the presence of different concentrations of Angio-3 after serum starved in EBM-2 supplemented with 0.5% FBS overnight. 300 μg/ml Avastin was used as a positive control. Alamar-Blue assay was performed after 3 days of treatment.

HRMEC cells [5] = experiment: HRMEC transwell migration assay; type: cell-based; conditions: 300 μg/ml; 50 ng/ml VEGF165; overnight
Procedure: Transwell migration assays were performed in a 24-well cells culture plate containing 8.0 μm pore size inserts. HRMEC cells were serum starved overnight prior of assay. The lower chamber were filled with EBM-2, EBM-2 supplemented with 50 ng/ml VEGF165 plus different concentrations of inhibitors. 1×10^5 Cells in EBM-2 were seeded in the upper chamber. Cells were allowed to migrate to the other side of membrane for overnight at 37° C. Cells on top of the membrane were wiped off and cells migrated to the other side were fixed and stained with 0.4% crystal violet. Cell numbers were counted under a 10× objective for 5 randomly selected fields.

Substance | Area of Leakage (mean) Week 1 ([1]; 100 ng single IVT) | Area of Leakage (mean) Week 4 ([1]; 100 ng single IVT) | % Reduction (area of leakage) ([1]; 100 ng single IVT) | Area of Leakage (mean) Week 1 ([1]; 1 μg single IVT) | Area of Leakage (mean) Week 4 ([1]; 1 μg single IVT) | % Reduction (area of leakage) ([1]; 1 μg single IVT) | Area of Leakage (mean) Week 1 ([1]; 5 μg single IVT) | Area of Leakage (mean) Week 4 ([1]; 5 μg single IVT) | % Reduction (area of leakage) ([1]; 5 μg single IVT) | choroidal angiogenesis [1] | comparative efficacy between treatment groups [2] | corneal NV area seven days after alkali-burn injury [3] | VEGF induced HRMEC proliferation (HRMEC cells [4]) | VEGF induced HRMEC migration (HRMEC cells [5])
Thr Pro His Thr His Asn Xaa Thr Pro Glu, wherein Xaa is homoarginine (TPHTHN[hArg]TPE) [PEP-N, chemically modified Angio-3 peptide] | 11287.40 | 2237.13 | 42.00% | 12808.95 | 2402.54 | 43.06% | 8251.43 | 749.71 | 52.73% | significantly attenuates the choroidal angiogenesis | – | – | – | –
Thr Pro His Thr His Gln Xaa Thr Pro Glu, wherein Xaa is homoarginine (TPHTHQ[hArg]TPE) [PEP-Q, chemically modified Angio-3 peptide] | 9987.09 | 1283.52 | 48.96% | 13444.14 | 1271.30 | 52.36% | 12839.27 | 742.03 | 56.04% | significantly attenuates the choroidal angiogenesis | dose dependent efficacy and higher dose efficacy close to Eylea | significantly reduced corneal NV area | – | –
bevacizumab [Avastin] | – | – | – | – | – | – | – | – | – | – | – | – | sufficient to inhibit VEGF induce proliferation | completely blocked
